Data from US11744860B2, “Technology for efficient activation of NKT cells” (RIKEN, priority 2016, dated 2023).

What was measured:
Type in all cases: cell-based
human NKT cell line [1] = assay: NKT cell activating action (IFN-γ production), co-culture of ligand-pulsed cells with human NKT cell line, ELISA; settings: ligand 100 ng/mL; for IFN-γ production from NKT cells induced by ligand-pulsed CD14 positive cells: 48 hr pulse, 1×10^5 pulsed cells with 1×10^5 human NKT cells, 48 hr
From the text: For preparation of the cells obtained by culturing human CD14 positive cells (monocytes) immediately after separation using anti-CD14 antibody and human CD14 negative cells or human Elu-CD14 positive cells (monocytes) for 2 days with GM-CSF and NKT cell ligand RK-163 (respectively called “RK-163-pulsed human CD14 positive cell”, “RK-163-pulsed human CD14 negative cell”, “RK-163-pulsed human Elu-CD14 positive cell”), and the dendritic cells induced to differentiate in 2)-(2) by culturing for 6 days with addition of GM-CSF and IL-4 (called “RK-163-pulsed human dendritic cell”), RK-163 (bulk powder was dissolved in PBS added with DMSO and 0.5% Tween 20) was added to each cell to a final concentration of 100 ng/mL, and the cells were cultured at 37° C., 5% CO2 for 48 hr to produce “RK-163-pulsed cells”. After culturing, the recovered cells were centrifugation washed twice, and the number of viable cells after Trypan Blue staining was calculated by TC20™ Automated Cell Counter. RK-163-pulsed cells and human NKT cell line were respectively suspended in 10% fetal calf serum (Sigma, Lot No. 114K525)-added RMPI-1640 (Invitrogen) to 1×10^6/mL, each cell suspension was seeded at a cell concentration of 1×10^5/0.1 mL/well in a 96-well round-bottomed culture plate, and the cells were cultured at 37° C., 5% CO2 for 48 hr. After culturing, 200 μL of supernatant was recovered, and the produced and secreted IFN-γ was measured using a commercially available ELISA kit (BD Biosciences).
CD14 positive cells immediately after separation of anti-CD14 antibody-bound microbeads were separated, pulse-cultured in a medium containing NKT ligand RK-163 or other NKT cell ligand α-GalCer at 100 ng/mL and GM-CSF (53.3 ng/mL) for various times (0, 16, 48, 64 and 72 hr), and an influence on the activity of NKT cells to induce IFN-γ production was compared. As a result, IFN-γ production inducing activity was found from 16 hr after pulsing and high activity was found 48-72 hr later (FIG. 4, left). The recovery rate and survival rate at that time were highest at 48 hrs (FIG. 4, right). […]
Using RCAI-85 (100 ng/mL), RCAI-137 (100 ng/mL) instead of RK-163, CD14 positive cells (monocytes) isolated from human peripheral blood were pulsed for 48 hr to give each ligand-pulsed CD14 positive cell. 1×10^5 RK-163-pulsed CD14 positive cells or other ligand-pulsed CD14 positive cells were seeded in a 96 well round-bottomed plate, and cocultured with 1×10^5 human NKT cells for 48 hr in a 10% FBS-containing complete RPMI-1640 medium, and the concentration of IFN-γ in the culture medium was measured.

[2] = test system: NCI H460 cells (human lung cancer cell line); assay: Cytotoxic activity of NKT cells stimulated with pulsed cells against NCI H460 cells
From the text: Human NKT cells were stimulated by culturing for 8-10 days with the “RK-163-pulsed human CD14 positive cell” or “RK-163-pulsed human dendritic cell” produced in the same manner as above in a mixed medium of AIM-V (50%) and RPMI-1640 (45%) and containing FCS (5%) (lot suitable for proliferation of iPS cells), sodium pyruvate, NEAA, 2-ME, IL-2 (100 U/mL) (Imunace). The mixing ratio of NKT cells and RK-163-pulsed CD14 positive cells or RK-163-pulsed dendritic cells was set to 1:1.5-5. The obtained human NKT cells were cultured for 4 hr together with NCI H460 cells (human lung cancer cell line) in an FBS (10%)-containing complete RPMI-1640 medium on a 96 well round-bottomed plate and the cytotoxic activity against NCI H460 cells was examined. The number of the target cells (NCI H460 cells) was set to 1×10^4 cells/well and the effector:target ratio was set to 3:1 and 10:1.

human NKT cell line [3] = assay: NKT cell activating action (IFN-γ production) of RK-163-pulsed human CD14 positive cell lines; settings: U937 cells, RK-163 100 ng/mL, presence or absence of GM-CSF, 2-48 hr
Method: Human CD14 positive cell line THP-1 cells and U937 cells were suspended in RPMI1640/10% FBS culture medium to 1-3×10^6 cells/ml, and seeded in a 24-well culture plate (Falcon) at a cell density of 1 mL/well. Simultaneously, RK-163 (bulk powder was dissolved in PBS added with DMSO and 0.5% Tween 20) was added to a final concentration 100 ng/mL, […] to give “RK-163-pulsed human CD14 positive cell line”.
iPS-CD14 positive cells were cultured for 8-48 hr in the presence of RK-163 in the same manner as for THP-1 and U937 to give “RK-163-pulsed human iPS-CD14 positive cell line”.
[…] After culturing, the recovered cells were washed twice by centrifugation, and the number of viable cells after Trypan Blue staining was calculated by TC20™ Automated Cell Counter. RK-163-pulsed cells and human NKT cell line were respectively suspended in 10% fetal bovine serum (Sigma, Lot No. 114K525)-added RMPI-1640 (Invitrogen) to 1×10^6/mL, each cell suspension was seeded at a cell concentration of 1×10^5/0.1 mL/well in a 96-well round-bottomed culture plate, and the cells were cultured at 37° C., 5% CO2 for 48 hr. After culturing, 200 μL of supernatant was recovered, and the produced and secreted IFN-γ was measured using a commercially available ELISA kit (BD Biosciences). […]

| SMILES | IFN-γ production from NKT cells induced by ligand-pulsed CD14 positive cells (human NKT cell line [1]) | pulse time with high IFN-γ production inducing activity (human NKT cell line [1]; CD14 positive cells, GM-CSF 53.3 ng/mL) | pulse time from which IFN-γ production inducing activity was found (human NKT cell line [1]; CD14 positive cells, GM-CSF 53.3 ng/mL, times 0, 16, 48, 64, 72 hr) | cytotoxic activity induced on human NKT cells as compared to α-GalCer [2] | pulse time from which IFN-γ production inducing activity was found (human NKT cell line [3]) |
| --- | --- | --- | --- | --- | --- |
| CCCCCCCCCCCCCCCCCCCCCCCCCC(=O)N[C@@H](CO[C@H]1O[C@H](COCC)[C@H](O)[C@H](O)[C@H]1O)[C@H](O)[C@H](O)CCCCCCCCCCCCCC [RCAI-85] | strongly induce | – | – | – | – |
| CCCCCCCCCCCCCCCCCCCCCCCCCC(=O)N[C@@H](CO[C@H]1O[C@H](COC(=O)NO)[C@H](O)[C@H](O)[C@H]1O)[C@H](O)[C@H](O)CCCCCCCCCCCCCC [RCAI-137] | strongly induce | – | – | – | – |
| CCCCCCCCCCCCCCCCCCCCCCCCCC(=O)N[C@@H](CO[C@H]1O[C@H](COC(=O)NC)[C@H](O)[C@H](O)[C@H]1O)[C@H](O)[C@H](O)CCCCCCCCCCCCCC [RK-163] | – | 48 to 72 h | ≥ 16 h | stronger | ≥ 2 h |
